Source: patent US9522177B2, “Antimicrobial and immunostimulatory system comprising an oxidoreductase enzyme” (Institute of Technology Sligo, priority 2006, dated 2016)

Key:
L929 cells = experiment: ISO 10993-5 agar overlay cytotoxicity (neutral red); conditions: positive control, 24 hrs
Procedure: ISO 10993, agar overlay tests for cytotoxicity: in vitro method is also used, employing L929 cells (mouse fibroblasts ECACC 85011425). In brief; a confluent monolayer of cells is incubated, this is then covered with a layer fresh medium (EMEM, 2 mM L-Glutamine, 5% FBS, 2% Penicillin-Streptomycin) containing 1.5 g/l of soft agar and allowed to solidify. One tenth of the surface is covered with test materials (previously described) and incubated for 24 hrs. Post incubation the test material is carefully removed and a vital stain (neutral red) in fresh media added. After incubation this is removed, the cells washed and then the dye extracted from the cells and quantified spectrophotometrically for cell viability.
Percent toxicity was calculated according to the formula: % Toxicity=1−(OD average of test material wells/average OD of corresponding control wells (sodium azide added))×100. Included in the assay are a 50% concentration of A^3IS, a range of concentrations of commercial silver containing gel and commercial zinc containing gel product, compared to sodium azide (positive control). […] For the agar overlay toxicity assay the amount of test materials used was similar to that used for the initial direct contact assays of 100 mg per well however the contact time was extended to 24 hrs.

[1] = tested on: clinical isolates of Mastitis causing Staphylococcus aureus; experiment: Inhibition assay (3 day repeats), mastitis isolates; assay type: cell-based; conditions: for sensitivity of clinical isolate number 15: Mastitis causing Staphylococcus aureus isolate number 15, FIG. 11b
Procedure: 22 isolates of Staphylococcus aureus from clinical mastitis obtained from Sligo regional Veterinary Laboratories are grown on nutrient agar or in nutrient broth for 24 hrs at 37° C.
Agar plates are inoculated by swabbing overnight culture onto the plate surface. Plates are allowed to stand at room temperature for 15 minutes before use. Wells 8.2 mm diameter are bored into the surface of the agar. One hundred and eighty μl of sample is placed into each well. The samples diffuse into the agar around the well and are assayed for an ability to produce a zone of inhibition. Plates are incubated for 24, 48 or 72 hrs and zones of inhibition are measured using an Autodata automatic zone reader. The diameter of zones, including the diameter of the well (8.2 mm), is recorded.

Compound | sensitivity of clinical isolate number 15 [1] | other results
[N-]=[N+]=[N-] [sodium azide] | – | % Toxicity (L929 cells): 100%
CN[C@H](CC(C)C)C(=O)N[C@H]1C(=O)N[C@@H](CC(N)=O)C(=O)N[C@H]2C(=O)N[C@H]3C(=O)N[C@H](C(=O)N[C@H](C(=O)O)c4cc(O)cc(O)c4-c4cc3ccc4O)[C@H](O)c3ccc(c(Cl)c3)Oc3cc2cc(c3O[C@@H]2O[C@H](CO)[C@@H](O)[C@H](O)[C@H]2O[C@H]2C[C@](C)(N)[C@H](O)[C@H](C)O2)Oc2ccc(cc2Cl)[C@H]1O [Vancomycin] | resistant | –
O=C(N[C@H](CO)[C@H](O)c1ccc([N+](=O)[O-])cc1)C(Cl)Cl [Chloramphenicol] | only mild sensitivity | –
[H]/N=C(/N)N[C@H]1[C@H](O)[C@@H](O)[C@H](O[C@@H]2O[C@@H](C)[C@](O)(C=O)[C@H]2O[C@@H]2O[C@@H](CO)[C@H](O)[C@@H](O)[C@@H]2NC)[C@@H](N/C(N)=N\[H])[C@@H]1O [Streptomycin] | resistant | –
Nisin [2% Nisin] | – | resistant colonies in zone of inhibition assays ([1]; FIG. 11e): resistant colony within the zone of inhibition
